Literature values, collected in US7931880B2, “Production of silver sulfate grains using inorganic additives” (Eastman Kodak Company, priority 2007, dated 2011).

Legend:
Staphylococcus aureus = conditions: in polymethylmethacrylate bone cement at 0.5% concentration
Pseudomonas aeruginosa = conditions: in polymethylmethacrylate bone cement at 0.5% concentration
Escherichia coli = conditions: in polymethylmethacrylate bone cement at 0.5% concentration

Row | Compound | inhibition of bacterial growth (Staphylococcus aureus) | inhibition of bacterial growth (Pseudomonas aeruginosa) | inhibition of bacterial growth (Escherichia coli) | Additive Silver Solubility (silver salt of the additive anion) [g/100 mL] | Additive Sulfate Solubility (sulfate salt of the additive cation) [g/100 mL]
1 | silver oxide | significantly inhibit | significantly inhibit | significantly inhibit | – | –
2 | [Na+].[Na+].[O]=[W](=[O])([O-])[O-] [Na2WO4, sodium tungstate] | – | – | – | 0.0070 | 7.7
3 | [Cl][Ag] [Silver chloride] | significantly inhibit | significantly inhibit | significantly inhibit | – | –
4 | O=S(=O)([O-])[O-].[Ag+].[Ag+] [silver sulfate] | significantly inhibit | significantly inhibit | significantly inhibit | – | –
